In patent publication US20260035364A1, “BICYCLIC TETRAHYDROTHIAZEPINE DERIVATIVES” (Hoffmann-La Roche Inc., priority 2022, published 2026):

Key:
[1] = test system: primary human T-cells; experiment: IL2 secretion measurements in CD3-stimulated T-cells; assay type: cell-based; conditions: Homo sapiens, T-cell, 24 h, CD3 condition; for Emax: IL2 after 24 hours, 20 μM reference compound A1 = 100%, read-out: Emax IL2 (% activation); for EC50: IL2 secretion after 24 hours, read-out: Tcell IL2 CD3 EC50
Experimental: As readouts for T-cell activation, IL2 secretion after 24 hours and proliferation after 5 days was measured. Increases in IL2 secretion and proliferation upon compound treatment were assessed as the % of the maximum of reference compound A1. WO 2016/139181 discloses reference compound A1 as example 70. As a counter screen and to make sure that no unwanted TCR-independent activation was triggered, PBS conditions were run for all compounds.
Expanded primary human T-cells were thawed and cultured in RPMI 1640 (Gibco, #61870-010)+5% human serum (HS, Sigma, #H3667)+1 mM Sodium Pyruvate (Gibco, #11360-039)+50 μM 2-mercaptoethanol (Gibco, #31350-010) and 1× Pen-Strep (Life Technologies, #15140122) medium at density of 2 Mio/ml for 3 hours in 5% CO2, 37° C. and 95% humidity. For coating of plates, […] or PBS++ with CD3 antibody (concentration depending on donor and determined by CD3 titrations) was added 100 μl/well to Poly-D Lysine coated 96-well plates. Plates were sealed and incubated at room temperature for 3 hours on a table-top rocking platform. After incubation, plates were washed once with PBS−− and filled with 40 μl/well culture medium only. Compounds were then added (see next section) to medium only plates. After 3 hours of culturing the T-cells, cells were filtered through a cell strainer (Miltenyi Biotech, #130-041-407), counted again and concentration was adjusted to 1.25 Mio/ml.
Cells were then seeded 80 μl/well to the 40 μl/well including dispensed compounds according to plate layout. By adding cells, compounds were further diluted 1:3, and resulting in 100k cells/120 µl/well. After 24 hours 40 μl of supernatant was collected carefully from the top while not disturbing the cells and transferred into a round bottom 96 well plate. Collected and frozen supernatant was used for detection of IL2 using the IL-2 Human ProQuantum Immunoassay Kit (Invitrogen) or using the Human IL-2 ELISA Kit (Thermo Fisher).
Compound Treatment Compounds were added in a 5 or 6 pt dose response with the Tecan D300e Digital Dispenser, all conditions 3 times more concentrated than the end-concentration, since cells are added afterwards (80p1 cells to 40p1 prepared medium with treatment). The DR was starting at 20 μM or 10 μM final top concentration and a dilution factor of 3.333. The positive control was the reference compound A1 that was added in a dose response as well, additionally to 3 wells of only 20 μM representing the positive stimulator control. All wells were normalized with DMSO to a final concentration of 0.6% (0.2% end-concentration).
The immunoassay is done following the manufacturer's manual (Invitrogen, #A35603).
Additional information: For the immunoassay, MicroAmp™ EnduraPlate™ Optical 384-Well plates are used. Frozen supernatant is thawed and centrifuged for 5 minutes at 1000×g, both steps at 4° C. After centrifugation, required sample amount is taken from the top, and in a separate LightCycler V-bottom plate (working plate) diluted with assay dilution buffer, dilution factor depending on the PBS or CD3 condition but at least 1:3. IL-2 standard and blanks are prepared in the same V-bottom plate, standard with a range of 0.0128-5000 pg/ml (extended version). After preparation, 5 μl of sample dilutions or standard/blanks are transferred to the optical 384-well plate (assay plate) and the 10 μl reaction protocol is being followed. For measurement, the QuantStudio 12K Flex system is used. Raw data is extracted and IL-2 concentrations are calculated with the Thermo Fisher online app (apps.thermofisher.com/apps/proquantum).
ELISA is done following the manufacturer's manual (Thermo Fisher Scientific, #88-7025-88). Additional information: For the ELISA Nunc MaxiSorp 96 well plates are used. Frozen supernatant is thawed and centrifuged for 5 minutes at 1000×g, both steps at 4° C. […]

[2] = molecular target: DGKalpha (Homo sapiens, UniProt P23743); experiment: In vitro DGK inhibition assay (ADP-Glo, liposomes), DGKalpha; assay type: biochemical; design: hDGKalpha(1-735)-N-His; His (N); made in house; host or cells: Sf21 insect cells (baculovirus); conditions: 4 nM DGK α, 25 μM ATP, 125 uM DLG in liposomes, 1 hour reaction
Experimental: DGK α and ζ kinases use ATP to phosphorylate the substrate 1,2-dilauroyl-sn-glycerol (DLG, incorporated in the liposomes). ATP is converted to ADP as a result of this enzymatic reaction. After the kinase reaction, an ATP-depletion reagent is added to terminate the kinase reaction and deplete any remaining ATP, leaving only ADP. Second, a detection reagent is added to simultaneously convert ADP to ATP and allow the newly synthesized ATP to be converted to light using a coupled luciferase/luciferin reaction.
Full length DGKA and Z were expressed in Sf21 insect cells by infecting the cells with the baculovirus stock at MOI of 2. Purification of both enzymes was performed as previously described by Takahashi et al., PeerJ, 2018 (Takahashi, D.; Sakane, F. Expression and purification of human diacylglycerol kinase alpha from baculovirus-infected insect cells for structural studies. PeerJ 2018, 6, No. e5449).
A concentrated liposome solution was prepared in assay buffer without DTT and BSA: 2 mM of DLG in 21 mM of total liposome (2 mM DLG/8 mM PS/11 mM PC). The reaction mixtures contain the assay buffer with a final DLG concentration of 125 uM ATP concentrations of 25 μM (for DGKA assay) or 50 μM (for DGKZ assay). The reactions were started by addition of DGK a and (kinases at 4 nM and 2 nM final concentrations, respectively. After 1 hour reaction, the amount of ADP formed was detected with the ADP-Glo kinase assay (Promega) according to the manufacturer instructions. Compounds were added in 11-points dose response, starting at […], 1:3 dilutions, with a final DMSO concentration of 2%. The multidrop combi was used as a liquid handler and luminescence was read with 0.5 s by the envision reader (PE).

Chain of DGKalpha (P23743 whole entry): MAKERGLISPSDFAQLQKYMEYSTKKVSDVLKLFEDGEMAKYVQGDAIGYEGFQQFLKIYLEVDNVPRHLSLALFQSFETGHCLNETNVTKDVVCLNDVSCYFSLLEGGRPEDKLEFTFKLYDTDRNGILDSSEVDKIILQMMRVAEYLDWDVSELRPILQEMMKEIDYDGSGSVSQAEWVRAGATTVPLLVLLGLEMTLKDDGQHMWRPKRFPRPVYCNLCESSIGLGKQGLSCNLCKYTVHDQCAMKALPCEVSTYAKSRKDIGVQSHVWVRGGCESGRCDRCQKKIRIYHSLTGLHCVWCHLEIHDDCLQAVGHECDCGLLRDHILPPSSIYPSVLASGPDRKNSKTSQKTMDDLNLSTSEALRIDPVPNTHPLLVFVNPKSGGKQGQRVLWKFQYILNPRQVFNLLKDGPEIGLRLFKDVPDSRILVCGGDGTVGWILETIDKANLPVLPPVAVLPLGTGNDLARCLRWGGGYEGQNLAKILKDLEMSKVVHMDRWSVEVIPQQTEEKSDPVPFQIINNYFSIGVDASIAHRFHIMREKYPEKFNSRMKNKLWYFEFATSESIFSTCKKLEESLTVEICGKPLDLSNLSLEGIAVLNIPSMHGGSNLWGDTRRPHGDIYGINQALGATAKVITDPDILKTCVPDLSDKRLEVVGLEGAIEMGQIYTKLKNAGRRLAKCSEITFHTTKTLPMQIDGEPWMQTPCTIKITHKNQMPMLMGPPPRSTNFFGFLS

Row | EC50 [1] | IC50 [2] | SMILES | Emax [1]
1 | 0.932 µM | 0.753 µM | CC(C)(c1nnc(-c2ccc3c(c2)N(Cc2ccc(OCc4ccccc4)cc2)C(=O)[C@@H](N)CS3(=O)=O)o1)S(C)(=O)=O [Example 11, (3R)-3-amino-5-[(4-benzyloxyphenyl)methyl]-7-[5-(1-methyl-1-methylsulfonyl-ethyl)-1,3,4-oxadiazol-2-yl]-1,1-dioxo-2,3-dihydro-1λ6,5-benzothiazepin-4-one] | 140%
2 | 0.813 µM | 34.9 µM | CC(C)(c1nnc(-c2ccc3c(c2)N(Cc2ccc(Oc4cc(F)cc(C(F)(F)F)c4)cc2)C(=O)[C@@H](N)CS3(=O)=O)o1)S(C)(=O)=O [Example 39] | 106%
3 | 2.49 µM | 3.26 µM | CC(C)(c1nnc(-c2ccc3c(c2)N(Cc2ccc(OC(F)(F)F)cc2)C(=O)[C@@H](N)CS3(=O)=O)o1)S(C)(=O)=O [Example 64, (3R)-3-amino-7-[5-(1-methyl-1-methylsulfonyl-ethyl)-1,3,4-oxadiazol-2-yl]-1,1-dioxo-5-[[4-(trifluoromethoxy)phenyl]methyl]-2,3-dihydro-126,5-benzothiazepin-4-one] | 55%
4 | 0.741 µM | 10.1 µM | CC(C)(c1nnc(-c2ccc3c(c2)N(Cc2ccc(-c4ccc(C(F)(F)F)cc4)cc2)C(=O)[C@@H](N)CS3(=O)=O)o1)S(C)(=O)=O [Example 56, (3R)-3-amino-7-[5-(1-methyl-1-methylsulfonyl-ethyl)-1,3,4-oxadiazol-2-yl]-1,1-dioxo-5-[[4-[4-(trifluoromethyl)phenyl]phenyl]methyl]-2,3-dihydro-1λ6,5-benzothiazepin-4-one] | 120%
5 | 4.27 µM | 1.85 µM | CC(C)(c1nc(-c2cc3c(cc2F)S(=O)(=O)C[C@H](N)C(=O)N3Cc2ccc(OCc3nc(C(F)(F)F)no3)cc2)no1)S(C)(=O)=O [Example 59, (3R)-3-amino-8-fluoro-7-[5-(1-methyl-1-methylsulfonyl-ethyl)-1,2,4-oxadiazol-3-yl]-1,1-dioxo-5-[[4-[[3-(trifluoromethyl)-1,2,4-oxadiazol-5-yl]methoxy]phenyl]methyl]-2,3-dihydro-1λ6,5-benzothiazepin-4-one] | 135%
6 | 3.42 µM | 3.35 µM | CC(C)(c1nnc(-c2ccc3c(c2)N(Cc2ccc(-c4noc(C(F)(F)F)n4)cc2)C(=O)[C@@H](N)CS3(=O)=O)o1)S(C)(=O)=O [Example 17, (3R)-3-amino-7-[5-(1-methyl-1-methylsulfonyl-ethyl)-1,3,4-oxadiazol-2-yl]-1,1-dioxo-5-[[4-[5-(trifluoromethyl)-1,2,4-oxadiazol-3-yl]phenyl]methyl]-2,3-dihydro-1λ6,5-benzothiazepin-4-one] | 153%
7 | 1.05 µM | 1.96 µM | CC(C)(c1nc(-c2cc3c(cc2F)S(=O)(=O)C[C@H](N)C(=O)N3Cc2ccc(Oc3ccccc3)nc2)no1)S(C)(=O)=O [Example 48, (3R)-3-amino-8-fluoro-7-[5-(1-methyl-1l-methylsulfonyl-ethyl)-1,2,4-oxadiazol-3-yl]-1,1-dioxo-5-[(6-phenoxy-3-pyridyl)methyl]-2,3-dihydro-1 λ6,5-benzothiazepin-4-one] | 165%
8 | 0.485 µM | 0.815 µM | CC(C)(c1nc(-c2cc3c(cc2F)S(=O)(=O)C[C@H](N)C(=O)N3Cc2ccc(Oc3ccccc3)cc2)no1)S(C)(=O)=O [Example 30, (3R)-3-amino-8-fluoro-7-[5-(1-methyl-1-methylsulfonyl-ethyl)-1,2,4-oxadiazol-3-yl]-1,1-dioxo-5-[(4-phenoxyphenyl)methyl]-2,3-dihydro-1λ6,5-benzothiazepin-4-one] | 265%
9 | 3.16 µM | > 62.5 µM | CN(C)S(=O)(=O)C(C)(C)c1nnc(-c2ccc3c(c2)N(Cc2ccc(-c4ccc(C(F)(F)F)cc4)cc2)C(=O)[C@@H](N)CS3(=O)=O)o1 [Example 65, 2-[5-[(3R)-3-amino-1,1,4-trioxo-5-[[4-[4-(trifluoromethyl)phenyl]phenyl]methyl]-2,3-dihydro-1λ6,5-benzothiazepin-7-yl]-1,3,4-oxadiazol-2-yl]-N,N-dimethyl-propane-2-sulfonamide] | 85%
10 | 7.33 µM | 3.08 µM | CC(C)(c1nnc(-c2ccc3c(c2)N(Cc2ccc(OCCC(F)(F)F)cc2)C(=O)[C@@H](N)CS3(=O)=O)o1)S(C)(=O)=O [Example 23, (3R)-3-amino-7-[5-(1-methyl-1-methylsulfonyl-ethyl)-1,3,4-oxadiazol-2-yl]-1,1-dioxo-5-[[4-(3,3,3-trifluoropropoxy)phenyl]methyl]-2,3-dihydro-1λ6,5-benzothiazepin-4-one] | 62%
11 | 3.53 µM | 0.274 µM | CN(Cc1ccccc1)c1ccc(CN2C(=O)[C@@H](N)CS(=O)(=O)c3ccc(-c4nnc(C(C)(C)S(C)(=O)=O)o4)cc32)cc1 [Example 15, (3R)-3-amino-5-[[4-[benzyl(methyl)amino]phenyl]methyl]-7-[5-(1-methyl-1-methylsulfonyl-ethyl)-1,3,4-oxadiazol-2-yl]-1,1-dioxo-2,3-dihydro-1λ6,5-benzothiazepin-4-one] | 99%
12 | 0.491 µM | 1.1 µM | CC(C)(c1nc(-c2cc3c(cc2F)S(=O)(=O)C[C@H](N)C(=O)N3Cc2ccc(-c3noc(C(F)(F)F)n3)cc2)no1)S(C)(=O)=O [Example 46, (3R)-3-amino-8-fluoro-7-[5-(1-methyl-1-methylsulfonyl-ethyl)-1,2,4-oxadiazol-3-yl]-1,1-dioxo-5-[[4-[5-(trifluoromethyl)-1,2,4-oxadiazol-3-yl]phenyl]methyl]-2,3-dihydro-1λ6,5-benzothiazepin-4-one] | 317%
